Assays:
HT1080 cells = experiment: Cellular assay for IDH1m inhibitors: inhibition of 2-HG production in HT1080 cells (LC-MS); type: cell-based; conditions: Homo sapiens, HT-1080, 48 hours
Method in brief: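 HT1080 or U87MG cells seeded at 5000 cells/well overnight, then compound added (final DMSO 0.2%) and incubated 48 hours at 37 C. 2-HG in the medium quantified by LC-MS; viability checked by CellTiter-Glo luminescence at 72 hours post compound.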

IDH1 R132H = IDH1 R132H (Homo sapiens (Human), UniProt O75874, R132H); experiment: Assays for IDH1 R132H Inhibitors (NADPH/aKG, resazurin detection); type: biochemical; conditions: IDH1 R132H enzyme, Table 3; read-out: R132H IC50
Method in brief: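 Substrate mix held 8 uM NADPH plus 2 mM aKG; buffer was 20 mM Tris pH 7.5 with 150 mM NaCl, 10 mM MgCl2, 0.03% BSA. After 50 min room-temperature reaction, NADPH remaining was detected with 30 μM resazurin mix over 5 min.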

U87R132H (U87MG) cells = experiment: Cellular assay for IDH1m inhibitors: inhibition of 2-HG production in U87MG (U87R132H) cells (LC-MS); type: cell-based; conditions: Homo sapiens, U-87 MG, 48 hours
Method: Cells (e.g., HT1080 or U87MG) are grown in T125 flasks in DMEM containing 10% FBS, 1× penicillin/streptomycin and 500 ug/mL G418. They are harvested by trypsin and seeded into 96 well white bottom plates at a density of 5000 cell/well in 100 ul/well in DMEM with 10% FBS. No cells are plates in columns 1 and 12. Cells are incubated overnight at 37 C in 5% CO2. The next day compounds are made up at 2× concentration and 100 ul are added to each cell well. The final concentration of DMSO is 0.2% and the DMSO control wells are plated in row G. The plates are then placed in the incubator for 48 hours. At 48 hours, 100 ul of media is removed from each well and analyzed by LC-MS for 2-HG concentrations. The cell plate is placed back in the incubator for another 24 hours. At 72 hours post compound addition, 10 mL/plate of Promega Cell Titer Glo reagent is thawed and mixed. The cell plate is removed from the incubator and allowed to equilibrate to room temperature. Then 100 ul of reagent is added to each well of media. The cell plate is then placed on an orbital shaker for 10 minutes and then allowed to sit at room temperature for 20 minutes. The plate is then read for luminescence with an integration time of 500 ms.

IDH1 R132H, sequence (O75874 whole entry R132H): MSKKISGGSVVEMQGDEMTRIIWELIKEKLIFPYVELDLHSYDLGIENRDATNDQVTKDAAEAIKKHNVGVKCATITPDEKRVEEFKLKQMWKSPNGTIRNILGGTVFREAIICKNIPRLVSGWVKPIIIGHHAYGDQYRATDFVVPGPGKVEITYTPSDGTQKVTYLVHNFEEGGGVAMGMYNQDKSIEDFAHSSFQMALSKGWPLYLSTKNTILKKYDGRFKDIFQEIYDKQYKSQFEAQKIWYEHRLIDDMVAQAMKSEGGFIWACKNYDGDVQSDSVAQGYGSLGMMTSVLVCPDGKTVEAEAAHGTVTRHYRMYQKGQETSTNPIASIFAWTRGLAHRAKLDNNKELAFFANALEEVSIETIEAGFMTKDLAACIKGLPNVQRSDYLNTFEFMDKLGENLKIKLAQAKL

IC50 (HT1080 cells) [nM]	IC50 (IDH1 R132H) [nM]	IC50 (U87R132H (U87MG) cells) [nM]	Structure (SMILES)
500 to 1000	< 500	< 500	COCCC(=O)N1CCN(c2nc(C3CC3)c3c(c2C#N)CCN(S(C)(=O)=O)C3)C[C@H]1C1CC1 [Compound 479, (R)-1-cyclopropyl-3-(3-cyclopropyl-4-(3-methoxypropanoyl)piperazin-1-yl)-7-(methylsulfonyl)-5,6,7,8-tetrahydro-2,7-naphthyridine-4-carbonitrile]
< 500	< 500	< 500	C=CC(=O)N1CCc2c(C3CC3)nc(N3CCN(C(=O)CCOC)[C@H](C4CC4)C3)c(C#N)c2C1 [Compound 483, (R)-6-acryloyl-1-cyclopropyl-3-(3-cyclopropyl-4-(3-methoxypropanoyl)piperazin-1-yl)-5,6,7,8-tetrahydro-2,6-naphthyridine-4-carbonitrile]
< 500	< 500	< 500	C=CC(=O)N1CCc2c(C#N)c(N3CCN(C(=O)CCOC)[C@H](C4CC4)C3)nc(C3CC3)c2C1 [Compound 485, (R)-7-acryloyl-1-cyclopropyl-3-(3-cyclopropyl-4-(3-methoxypropanoyl)piperazin-1-yl)-5,6,7,8-tetrahydro-2,7-naphthyridine-4-carbonitrile]
< 500	< 500	< 500	C#CC(=O)N1CCc2c(C3CC3)nc(N3CCN(C(=O)CCOC)[C@H](C4CC4)C3)c(C#N)c2C1 [Compound 486, (R)-1-cyclopropyl-3-(3-cyclopropyl-4-(3-methoxypropanoyl)piperazin-1-yl)-6-propioloyl-5,6,7,8-tetrahydro-2,6-naphthyridine-4-carbonitrile]
< 500	< 500	< 500	C=CC(=O)N1CCc2c(C#N)c(N3CCN(C(=O)CCO)[C@H](C4CC4)C3)nc(C3CC3)c2C1 [Compound 498, (R)-7-acryloyl-1-cyclopropyl-3-(3-cyclopropyl-4-(3-hydroxypropanoyl)piperazin-1-yl)-5,6,7,8-tetrahydro-2,7-naphthyridine-4-carbonitrile]

Continued, compound first:

Structure (SMILES)	IC50 (HT1080 cells) [nM]	IC50 (IDH1 R132H) [nM]	IC50 (U87R132H (U87MG) cells) [nM]
[2H]C1([2H])CN(c2nc(C3CC3)c3c(c2C#N)CC(C)(C)OC3)C([2H])([2H])C([2H])(C([2H])(C([2H])([2H])[2H])C([2H])([2H])[2H])N1C(=O)CC(F)(F)F [Compound 476, (R)-8-cyclopropyl-3,3-dimethyl-6-(2,2,3,5,5-pentadeuterio-3-(1,1,1,3,3,3-hexadeuteriopropan-2-yl)-4-(3,3,3-trifluoropropanoyl)piperazin-1-yl)-3,4-dihydro-1H-pyrano[3,4-c]pyridine-5-carbonitrile]	1000 to 10000	< 500	1000 to 10000
[2H]C([2H])([2H])C([2H])(C([2H])([2H])[2H])[C@@]1([2H])N(C(=O)CC(F)(F)F)C([2H])([2H])C([2H])([2H])N(c2nc(C3CC3)c3c(c2C#N)CC(C)(C)OC3)C1([2H])[2H] [Compound 477, (R)-8-cyclopropyl-3,3-dimethyl-6-(2,2,3,5,5-pentadeuterio-3-(1,1,1,3,3,3-hexadeuteriopropan-2-yl)-4-(3,3,3-trifluoropropanoyl)piperazin-1-yl)-3,4-dihydro-1H-pyrano[3,4-c]pyridine-5-carbonitrile]	1000 to 10000	< 500	1000 to 10000
CS(=O)(=O)N1CCc2c(C#N)c(N3CCN(C(=O)C4CC4)[C@H](C4CC4)C3)nc(C3CC3)c2C1 [Compound 481, (R)-3-(4-(cyclopropanecarbonyl)-3-cyclopropylpiperazin-1-yl)-1-cyclopropyl-7-(methylsulfonyl)-5,6,7,8-tetrahydro-2,7-naphthyridine-4-carbonitrile]	1000 to 10000	< 500	500 to 1000
C=CS(=O)(=O)N1CCc2c(C#N)c(N3CCN(C(=O)C4CC4)[C@H](C4CC4)C3)nc(C3CC3)c2C1 [Compound 493, (R)-3-(4-(cyclopropanecarbonyl)-3-cyclopropylpiperazin-1-yl)-1-cyclopropyl-7-(vinylsulfonyl)-5,6,7,8-tetrahydro-2,7-naphthyridine-4-carbonitrile]	< 500	< 500	< 500
COC(=O)N1CCc2c(C#N)c(N3CCN(C(=O)C4CC4)[C@H](C4CC4)C3)nc(C3CC3)c2C1 [Compound 494, (R)-methyl 5-cyano-6-(4-(cyclopropanecarbonyl)-3-cyclopropylpiperazin-1-yl)-8-cyclopropyl-3,4-dihydro-2,7-naphthyridine-2(1H)-carboxylate]	< 500	500 to 1000	< 500
C=CS(=O)(=O)N1CCc2c(C#N)c(-c3ccc(C(=O)OC)cc3F)nc(C3CC3)c2C1 [Compound 496]	< 500	< 500	< 500

From patent US9662327B2 (AGIOS PHARMACEUTICALS, INC, priority 2011, dated 2017)
